Here are results for 11 molecules from patent US20240261367A1, “CYCLIC PEPTIDE IMMUNOMODULATORS” (priority 2021, published 2024).

Starred links: 1 amine or outer side, 2 acyl side, 3 side chain; linkers in the order of their positions; H or OH if unused. Positions of bridges follow the written chain, without caps; N, C: chain ends. Non-standard residues stand in square brackets, D forms with d. Residues, ends and D or L forms follow the SMILES beside them. X2 = COC(=O)CCCCCCCCCCCCCCCCC(=O)N[C@@H](CCC(=O)NCCOCCOCCOCCOCCOCCOCCOCCOCCOCCOCCOCCn1cc(C[C@H](NC(=N)CNC(=O)[C@H](CSCC(=O)[*:1])NC(=N)[C@H](CC(C)C)N[*:2])C(=O)OC)nn1)C(=O)OC; Trp(1-CH2CO2Me) = COC(=O)Cn1cc(C[C@H](N)C(=O)O)c2ccccc21; Hyp = O=C(O)[C@@H]1C[C@@H](O)CN1; NMeNle = CCCC[C@H](NC)C(=O)O; NMeA = CN[C@@H](C)C(=O)O; Dab = NCC[C@H](N)C(=O)O; Dap = NC[C@H](N)C(=O)O

T1 sequence (Q9NZQ7 18-239): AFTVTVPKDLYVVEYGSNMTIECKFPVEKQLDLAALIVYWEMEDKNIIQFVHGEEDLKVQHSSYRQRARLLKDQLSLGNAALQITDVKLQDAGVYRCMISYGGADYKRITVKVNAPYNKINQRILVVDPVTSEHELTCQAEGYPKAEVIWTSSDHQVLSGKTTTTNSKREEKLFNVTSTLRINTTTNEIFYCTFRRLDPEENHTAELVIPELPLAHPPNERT

The assay addresses T1, PD-1/PD-L1 (Homo sapiens, UniProt Q9NZQ7).
T1 construct: TVMV protease site linker (C); made in house; host or cells: HEK293T cells
Put plainly: PD-1/PD-L1 Homogenous Time-Resolved Fluorescence (HTRF) binding assay. The following applies: PD-L1-His (10 nM) pre-incubated with inhibitor 15 m, then PD-1-Ig (20 nM). The text has this: Methods for Testing the Ability of Macrocyclic Peptides to Compete for the Binding of PD-1 to PD-L1 Using Homogenous Time-Resolved Fluorescence (HTRF) Binding Assays
The ability of the compounds of formula (I) to bind to PD-L1 was investigated using a PD-1/PD-L1 Homogenous Time-Resolved Fluorescence (HTRF) binding assay.
Homogenous Time-Resolved Fluorescence (HTRF) Binding Assay
The interaction of PD-1 and PD-L1 can be assessed using soluble, purified preparations of the extracellular domains of the two proteins. The PD-1 and PD-L1 protein extracellular domains were expressed as fusion proteins with detection tags, for PD-1, the tag was the Fc portion of Immunoglobulin (PD-1-Ig) and for PD-L1 it was the 6 histidine motif (PD-L1-His). All binding studies were performed in an HTRF assay buffer consisting of dPBS supplemented with 0.1% […] bovine serum albumin and 0.05% (v/v) Tween-20. […] HTRF detection was achieved using europium crypate-labeled anti-Ig (1 nM final) and allophycocyanin (APC) labeled anti-His (20 nM final). Antibodies were diluted in HTRF detection buffer and 5 μl was dispensed on top of the binding reaction. The reaction mixture was allowed to equilibrate for 30 minutes and the resulting signal (665 nm/620 nm ratio) was obtained using an EnVision fluorometer. Additional binding assays were established between the human proteins PD-1-Ig/PD-L2-His (20 & 5 nM, respectively) and CD80-His/PD-L1-Ig (100 & 10 nM, respectively).
Recombinant Proteins: Human PD-1 (25-167) with a C-terminal human Fc domain of immunoglobulin G (Ig) epitope tag [hPD-1 (25-167)-3S-IG] and human PD-L1 (18-239) with a C-terminal His epitope tag [hPD-L1(18-239)-TVMV-His] were expressed in HEK293T cells and purified sequentially by ProteinA affinity chromatography and size exclusion chromatography. Human PD-L2-His and CD80-His was obtained through commercial sources.
Table 1 lists the IC50 values for representative examples of this disclosure measured in the PD-1/PD-L1 Homogenous Time-Resolved Fluorescence (HTRF) binding assay.
(In general: Time-resolved FRET reads energy transfer from a long-lived donor to a nearby acceptor.)
Broadly, the IC50 is the concentration that gives 50% inhibition. Lower therefore signals higher potency. In turn, `CCCC[C@H]1C(=O)N(C)[C@@H](CCCC)C(=O)N[C@@H](CC(C)C)C(=O)N[C@H](C(=O)NCC(=O)N[C@@H](Cc2cn(CCOCCOCCOCCOCCOCCOCCOCCOCCOCCOCCOCCNC(=O)CC[C@H](NC(=O)CCCCCCCCCCCCCCCCC(=O)O)C(=O)OC)nn2)C(=O)O)CSCC(=O)N[C@@H](Cc2ccc(O)cc2)C(=O)N(C)[C@@H](C)C(=O)N[C@@H](CC(N)=O)C(=O)N2CCC[C@H]2C(=O)N[C@@H](CN)C(=O)N[C@@H](CC(C)C)C(=O)N2C[C@H](O)C[C@H]2C(=O)N[C@@H](Cc2c[nH]c3ccccc23)C(=O)N[C@@H](CCN)C(=O)N[C@@H](CC2=CC(CC(=O)O)c3ccccc32)C(=O)N1C` (some centres unmarked) [Example 1026] gave an IC50 of 2.9 nM. Then `CCCC[C@H]1C(=O)N(C)[C@@H](CCCC)C(=O)N[C@@H](CC(C)C)C(=O)N[C@H](C(=O)NCC(=O)N[C@@H](Cc2cn(CCOCCOCCOCCOCCOCCOCCOCCOCCOCCOCCOCCNC(=O)CC[C@H](NC(=O)CCCCCCCCCCCCCCCCC(=O)OC)C(=O)O)nn2)C(=O)O)CSCC(=O)N[C@@H](Cc2ccc(O)cc2)C(=O)N(C)[C@@H](C)C(=O)N[C@@H](CC(N)=O)C(=O)N2CCC[C@H]2C(=O)N[C@@H](CNC(=O)OCC)C(=O)N[C@@H](CC(C)C)C(=O)N2C[C@H](O)C[C@H]2C(=O)N[C@@H](Cc2c[nH]c3ccccc23)C(=O)N[C@@H](CCN)C(=O)N[C@@H](Cc2cn(CC(=O)O)c3ccccc23)C(=O)N1C` [Example 7001], with 53 nM.

Take `CCCC[C@H]1C(=O)N(C)[C@@H](CCCC)C(=O)N[C@@H](CC(C)C)C(=N)N[C@H](C(=O)NCC(=N)N[C@@H](Cc2cn(CCOCCOCCOCCOCCOCCOCCOCCOCCOCCOCCOCCNC(=O)CC[C@H](NC(=O)CCCCCCCCCCCCCCCCC(=O)OC)C(=O)OC)nn2)C(=O)OC)CSCC(=O)NCC(=O)N(C)[C@@H](C)C(=O)N[C@@H](CC(N)=O)C(=O)N2CCC[C@H]2C(=O)N[C@@H](CN)C(=O)N[C@@H](CC(C)C)C(=O)N2C[C@H](O)C[C@H]2C(=O)N[C@@H](Cc2c[nH]c3ccccc23)C(=O)N[C@@H](CCN)C(=O)N[C@@H](Cc2cn(CC(=O)OC)c3ccccc23)C(=O)N1C` [Example 1001] (G[NMeA]NP[Dap]L[Hyp]W[Dab][Trp(1-CH2CO2Me)][NMeNle][NMeNle]; linker N-C via X2): the IC50 was 7.3 nM.

Molecule `C=C(CC[C@@H]1NC(=O)[C@H](Cc2c[nH]c3ccccc23)NC(=O)[C@@H]2C[C@@H](O)CN2C(=O)[C@H](CC(C)C)NC(=O)[C@H](CNC(=O)CC[C@@H](C)[C@H]2CC[C@H]3[C@@H]4[C@H](O)C[C@@H]5C[C@H](O)CC[C@]5(C)[C@H]4C[C@H](O)[C@]23C)NC(=O)[C@@H]2CCCN2C(=O)[C@H](CC(N)=O)NC(=O)[C@H](C)N(C)C(=O)[C@H](Cc2ccc(O)cc2)NC(=O)CSC[C@@H](C(=O)NCC(=O)N[C@@H](Cc2cn(CCOCCOCCOCCOCCOCCOCCOCCOCCOCCOCCOCCNC(=O)CC[C@H](NC(=O)CCCCCCCCCCCCCCCCC(=O)O)C(=O)O)nn2)C(=O)O)NC(=O)[C@H](CC(C)C)NC(=O)[C@H](CCCC)N(C)C(=O)[C@H](CCCC)N(C)C(=O)[C@H](Cc2cn(CC(=O)O)c3ccccc23)NC1=O)CC[C@@H](C)[C@H]1CC[C@H]2[C@@H]3[C@H](O)C[C@@H]4C[C@H](O)CC[C@]4(C)[C@H]3C[C@H](O)[C@]12C` [Example 1004] showed an IC50 of 200 nM. Then `CCCC[C@H]1C(=O)N(C)[C@@H](CCCC)C(=O)N[C@@H](CC(C)C)C(=O)N[C@H](C(=O)NCC(=O)N[C@@H](Cc2cn(CCOCCOCCOCCOCCOCCOCCOCCOCCOCCOCCOCCNC(=O)CC[C@H](NC(=O)CCCCCCCCCCCCCCCCC(=O)O)C(=O)O)nn2)C(=O)O)CSCC(=O)N[C@@H](Cc2ccc(O)cc2)C(=O)N(C)[C@@H](C)C(=O)N[C@@H](CC(N)=O)C(=O)N2CCC[C@H]2C(=O)N[C@@H](CNC(=O)OC(C)(C)C)C(=O)N[C@@H](CC(C)C)C(=O)N2C[C@H](O)C[C@H]2C(=O)N[C@@H](Cc2c[nH]c3ccccc23)C(=O)N[C@@H](CCNC(=O)OC(C)(C)C)C(=O)N[C@@H](Cc2cn(CC(=O)O)c3ccccc23)C(=O)N1C` [Example 1002], with 6.5 nM.

As to `CCCC[C@H]1C(=O)N(C)[C@@H](CCCC)C(=O)N[C@@H](CC(C)C)C(=O)N[C@H](C(=O)NCC(=O)N[C@@H](Cc2cn(CCOCCOCCOCCOCCOCCOCCOCCOCCOCCOCCOCCNC(=O)CC[C@H](NC(=O)CCCCCCCCCCCCCCCCC(=O)O)C(=O)O)nn2)C(=O)O)CSCC(=O)N[C@@H](Cc2ccc(O)cc2)C(=O)N(C)[C@@H](C)C(=O)N[C@@H](CC(N)=O)C(=O)N2CCC[C@H]2C(=O)N[C@@H](CNC(=O)O[C@H]2CC[C@@]3(C)C(CC[C@H]4[C@@H]5CC[C@H]([C@H](C)CCCC(C)C)[C@@]5(C)CC[C@@H]43)C2)C(=O)N[C@@H](CC(C)C)C(=O)N2C[C@H](O)C[C@H]2C(=O)N[C@@H](Cc2c[nH]c3ccccc23)C(=O)N[C@@H](CC)C(=O)N[C@@H](CC2=CC(CC(=O)O)c3ccccc32)C(=O)N1C` (some centres unmarked) [Example 1027], the IC50 came out at 110 nM. Then `CCCC[C@H]1C(=O)N(C)[C@@H](CCCC)C(=O)N[C@@H](CC(C)C)C(=O)N[C@H](C(=O)NCC(=O)N[C@@H](Cc2cn(CCOCCOCCOCCOCCOCCOCCOCCOCCOCCOCCOCCNC(=O)CC[C@H](NC(=O)CCCCCCCCCCCCCCCCC(=O)O)C(=O)O)nn2)C(=O)O)CSCC(=O)N[C@@H](Cc2ccc(O)cc2)C(=O)N(C)[C@@H](C)C(=O)N[C@@H](CC(N)=O)C(=O)N2CCC[C@H]2C(=O)N[C@@H](CNC(=O)OC)C(=O)N[C@@H](CC(C)C)C(=O)N2C[C@H](O)C[C@H]2C(=O)N[C@@H](Cc2c[nH]c3ccccc23)C(=O)N[C@@H](CCN)C(=O)N[C@@H](CC2=CC(CC(=O)O)c3ccccc32)C(=O)N1C` (some centres unmarked) [Example 1016], with 13 nM. Then `CCCC[C@H]1C(=O)N(C)[C@@H](CCCC)C(=O)N[C@@H](CC(C)C)C(=O)N[C@H](C(=O)NCC(=O)N[C@@H](Cc2cn(CCOCCOCCOCCOCCOCCOCCOCCOCCOCCOCCOCCNC(=O)CC[C@H](NC(=O)CCCCCCCCCCCCCCCCC(=O)O)C(=O)O)nn2)C(=O)O)CSCC(=O)N[C@@H](Cc2ccc(O)cc2)C(=O)N(C)[C@@H](C)C(=O)N[C@@H](CC(N)=O)C(=O)N2CCC[C@H]2C(=O)N[C@@H](CNC(=O)OCc2oc(=O)oc2C)C(=O)N[C@@H](CC(C)C)C(=O)N2C[C@H](O)C[C@H]2C(=O)N[C@@H](Cc2c[nH]c3ccccc23)C(=O)N[C@@H](CCNC(=O)CCc2oc(=O)oc2C)C(=O)N[C@@H](CC2=CC(CC(=O)O)c3ccccc32)C(=O)N1C` (some centres unmarked) [Example 1022], with 6.8 nM. As to `CCCC[C@H]1C(=O)N(C)[C@@H](CCCC)C(=O)N[C@@H](CC(C)C)C(=O)N[C@H](C(=O)NCC(=O)N[C@@H](Cc2cn(CCOCCOCCOCCOCCOCCOCCOCCOCCOCCOCCOCCNC(=O)CC[C@H](NC(=O)CCCCCCCCCCCCCCCCC(=O)O)C(=O)O)nn2)C(=O)OC)CSCC(=O)N[C@@H](Cc2ccc(O)cc2)C(=O)N(C)[C@@H](C)C(=O)N[C@@H](CC(N)=O)C(=O)N2CCC[C@H]2C(=O)N[C@@H](CN)C(=O)N[C@@H](CC(C)C)C(=O)N2C[C@H](O)C[C@H]2C(=O)N[C@@H](Cc2c[nH]c3ccccc23)C(=O)N[C@@H](CCN)C(=O)N[C@@H](Cc2cn(CC(=O)OC)c3ccccc23)C(=O)N1C` [Example 3002], the half-maximal inhibitory concentration (IC50) amounted to 12 nM. In the case of `CCCC[C@H]1C(=O)N(C)[C@@H](CCCC)C(=O)N[C@@H](CC(C)C)C(=O)N[C@H](C(=O)NCC(=O)N[C@@H](Cc2cn(CCOCCOCCOCCOCCOCCOCCOCCOCCOCCOCCOCCNC(=O)CC[C@H](NC(=O)CCCCCCCCCCCCCCCCC(=O)OC)C(=O)OC)nn2)C(=O)O)CSCC(=O)N[C@@H](Cc2ccc(O)cc2)C(=O)N(C)[C@@H](C)C(=O)N[C@@H](CC(N)=O)C(=O)N2CCC[C@H]2C(=O)N[C@@H](CN)C(=O)N[C@@H](CC(C)C)C(=O)N2C[C@H](O)C[C@H]2C(=O)N[C@@H](Cc2c[nH]c3ccccc23)C(=O)N[C@@H](CCN)C(=O)N[C@@H](CC2=CC(CC(=O)O)c3ccccc32)C(=O)N1C` (some centres unmarked) [Example 1011] it was 11 nM.

The molecule `CCCC[C@H]1C(=O)N(C)[C@@H](CCCC)C(=O)N[C@@H](CC(C)C)C(=O)N[C@H](C(=O)NCC(=O)N[C@@H](Cc2cn(CCOCCOCCOCCOCCOCCOCCOCCOCCOCCOCCOCCNC(=O)CC[C@H](NC(=O)CCCCCCCCCCCCCCCCC(=O)O)C(=O)O)nn2)C(=O)O)CSCC(=O)N[C@@H](Cc2ccc(O)cc2)C(=O)N(C)[C@@H](C)C(=O)N[C@@H](CC(N)=O)C(=O)N2CCC[C@H]2C(=O)N[C@@H](CNC(=O)OCC)C(=O)N[C@@H](CC(C)C)C(=O)N2C[C@H](O)C[C@H]2C(=O)N[C@@H](Cc2c[nH]c3ccccc23)C(=O)N[C@@H](CCN)C(=O)N[C@@H](CC2=CC(CC(=O)O)c3ccccc32)C(=O)N1C` (some centres unmarked) [Example 1009] came in with an IC50 of 12 nM.
